In patent US6339093B1, “Isoquinoline derivatives” (Hoffmann-la Roche Inc., priority 1999, dated 2002):
Where a name gives a salt, the structure may show the parent alone.

Columns and labels:
NMDA receptor = target: T1, NMDA receptor (Rattus norvegicus, UniProt P35439+Q00960); experiment: 3H-[R-(R*,S*)]-a-(4-Hydroxy-phenyl)-b-methyl-4-(phenyl-methyl)-1-piperidine propanol binding (displacement, rat brain membranes); conditions: displacement of 5 nM 3H-radioligand, rat whole brain membranes minus cerebellum and medulla oblongata, 2 hours at 4° C.
T1 construct: Membranes were prepared by homogenization of the whole brain minus cerebellum and medulla oblongata; from tissue; host or cells: rat whole brain minus cerebellum and medulla oblongata, membranes
Experimental: ^3H-[R-(R*,S*)]-a-(4-Hydroxy-phenyl)-b-methyl-4-(phenyl-methyl)-1-piperidine propanol binding
Male Füllinsdorf albino rats weighing between 150-200 g were used. Membranes were prepared by homogenization of the whole brain minus cerebellum and medulla oblongata with a Polytron (10.000 rpm, 30 seconds), in 25 volume of a cold Tris-HCl 50 mM, EDTA 10 mM, pH 7.1 buffer. The homogenate was centrifuged at 48,000 g for 10 minutes at 4° C. The pellet was resuspended using the Polytron in the same volume of buffer and the homogenate was incubated at 37° C. for 10 minutes. After centrifugation the pellet was homogenized in the same buffer and frozen at −80° C. for at least 16 hours but not more than 10 days. For the binding assay the homogenate was thawed at 37° C., centrifuged and the pellet was washed three times as above in a Tris-HCl 5 mM, pH 7.5 cold buffer. The final pellet was resuspended in the same buffer and used at a final concentration of […] of protein/ml.
[R-(R*,S*)]-α-(4-Hydroxy-phenyl)-β-methyl-4-(phenyl-methyl)-1-piperidine propanol is a compound known to bind selectively to the NMDA receptor (J. Neurochem., Vol. 70., No. 5, 1998). ^3H-[R-(R*,S*)]-α-(4-Hydroxy-phenyl)-β-methyl-4-(phenyl-methyl)-1-piperidine propanol binding experiments were performed using a Tris-HCl 50 mM, pH 7.4 buffer. For displacement experiments 5 nM of 3H-[R-(R*,S*)]-a-(4-Hydroxy-phenyl)-b-methyl-4-(phenyl-methyl)-1-piperidine propanol were used and non specific binding was measured using 10 mM of tetrahydroisoquinoline and usually it accounts for 10% of the total. The incubation time was 2 hours at 4° C. and the assay was stopped by filtration on Whatmann GF/B glass fiber filters (Unifilter-96, Packard, Zürich, Switzerland). The filters were washed 5 times with cold buffer. The radioactivity on the filter was counted on a Packard Top-count microplate scintillation counter after addition of […] of microscint 40 (Canberra Packard S.A., Zürich, Switzerland).
The effects of compounds were measured using a minimum of 8 concentrations and repeated at least once. The pooled normalized values were analyzed using a non-linear regression calculation program which provide IC50 with their relative upper and lower 95% confidence limits.

T1 sequence (Q00960 27-1482, other chains not shown): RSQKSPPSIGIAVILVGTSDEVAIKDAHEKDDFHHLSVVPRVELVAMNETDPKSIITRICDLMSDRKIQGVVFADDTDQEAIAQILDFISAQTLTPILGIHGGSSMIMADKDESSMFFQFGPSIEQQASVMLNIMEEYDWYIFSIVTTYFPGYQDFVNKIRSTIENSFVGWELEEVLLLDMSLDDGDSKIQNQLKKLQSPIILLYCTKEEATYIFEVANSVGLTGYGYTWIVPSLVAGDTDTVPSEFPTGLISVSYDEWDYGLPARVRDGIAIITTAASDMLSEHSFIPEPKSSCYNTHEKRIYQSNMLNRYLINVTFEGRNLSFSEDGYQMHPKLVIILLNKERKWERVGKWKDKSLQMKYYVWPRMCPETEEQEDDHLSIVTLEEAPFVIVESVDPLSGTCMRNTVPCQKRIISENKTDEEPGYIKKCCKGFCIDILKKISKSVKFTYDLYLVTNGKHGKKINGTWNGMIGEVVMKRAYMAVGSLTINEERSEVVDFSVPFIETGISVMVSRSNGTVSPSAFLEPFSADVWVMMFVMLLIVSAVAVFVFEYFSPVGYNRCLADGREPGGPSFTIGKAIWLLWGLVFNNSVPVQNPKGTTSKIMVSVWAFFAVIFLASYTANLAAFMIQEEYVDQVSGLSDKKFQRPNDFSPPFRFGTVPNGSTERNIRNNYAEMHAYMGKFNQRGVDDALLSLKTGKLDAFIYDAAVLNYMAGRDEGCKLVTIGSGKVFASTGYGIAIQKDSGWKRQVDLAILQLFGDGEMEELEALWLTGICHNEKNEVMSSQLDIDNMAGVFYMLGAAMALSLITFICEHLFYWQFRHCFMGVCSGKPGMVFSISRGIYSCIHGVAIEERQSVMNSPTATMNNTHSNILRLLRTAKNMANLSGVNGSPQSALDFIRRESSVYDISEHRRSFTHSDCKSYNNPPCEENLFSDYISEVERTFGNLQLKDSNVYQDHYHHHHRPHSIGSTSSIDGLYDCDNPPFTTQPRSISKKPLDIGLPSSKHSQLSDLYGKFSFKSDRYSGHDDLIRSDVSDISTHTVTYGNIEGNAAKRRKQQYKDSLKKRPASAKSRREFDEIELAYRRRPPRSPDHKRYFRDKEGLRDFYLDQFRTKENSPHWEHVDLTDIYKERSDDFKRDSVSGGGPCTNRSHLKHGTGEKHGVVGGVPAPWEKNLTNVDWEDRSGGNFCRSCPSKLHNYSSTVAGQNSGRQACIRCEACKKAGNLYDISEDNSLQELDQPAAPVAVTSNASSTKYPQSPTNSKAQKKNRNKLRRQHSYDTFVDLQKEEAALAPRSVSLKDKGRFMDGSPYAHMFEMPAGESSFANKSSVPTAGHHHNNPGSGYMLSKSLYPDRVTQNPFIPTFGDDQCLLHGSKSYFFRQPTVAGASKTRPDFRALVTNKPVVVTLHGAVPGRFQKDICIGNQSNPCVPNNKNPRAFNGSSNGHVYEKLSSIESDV

Structure (SMILES)	melting point [°C]	IC50 (NMDA receptor) [nM]
Cc1ccc2c(N3CCc4ccccc4C3)ccnc2c1.Cl [Example 13, 4-(3,4-Dihydro-1H-isoquinolin-2-yl)-7-methyl-quinoline hydrochloride]	251 to 252	190
Cl.c1ccc2c(c1)CCN(c1ccnc3ccccc13)C2	200	–
COc1cccc2c(N3CCc4ccccc4C3)ccnc12.Cl	240	–
Cl.Clc1ccc2c(c1)CN(c1ccnc3ccccc13)C2	270 to 275	–
OC[C@H]1CCCN1c1cc(N2CCc3ccccc3C2)c2ccccc2n1 [Example 5, (R)-{1-[4-(3,4-Dihydro-1H-isoquinolin-2-yl)-quinolin-2-yl]-pyrrolidin-2-yl}-methanol]	74 to 80	290
Fc1cccc2c(N3CCc4ccccc4C3)ccnc12 [Example 16, 4-(3,4-Dihydro-1H-isoquinolin-2-yl)-8-fluoro-quinoline hydrochloride]	–	650
Fc1ccc2nccc(N3CCc4ccccc4C3)c2c1 [Example 18, 4-(3,4-Dihydro-1H-isoquinolin-2-yl)-6-fluoro-quinoline hydrochloride]	–	890
Cl.O[C@@H]1CCN(c2cc(N3CCc4ccccc4C3)c3ccccc3n2)C1 [Example 4, (R)-1-[4-(3,4-Dihydro-1H-isoquinolin-2-yl)-quinolin-2-yl]-pyrrolidin-3-ol hydrochloride]	270 to 274	170

Further lines, results first:

melting point [°C]	IC50 (NMDA receptor) [nM]	Structure (SMILES)
210 to 211	–	Cc1cc(N2CCc3ccccc3C2)c2ccccc2n1.Cl
–	58	OCCNc1cc(N2CCc3ccccc3C2)c2ccccc2n1 [Example 2, 2-[4-(3,4-Dihydro-1H-isoquinolin-2-yl)-quinolin-2-ylamino]-ethanol hydrochloride]
–	320	Clc1ccc2c(N3CCc4ccccc4C3)ccnc2c1 [Example 15, 7-Chloro-4-(3,4-dihydro-1H-isoquinolin-2-yl)-quinoline hydrochloride]
264 to 267	–	Cl.c1ccc2c(c1)CN(c1ccnc3ccccc13)C2
